Laboratory results reported in patent US9493440B2, “Compounds inhibiting leucine-rich repeat kinase enzyme activity” (Merck Sharp & Dohme Corp., priority 2013, dated 2016).

Experiments:
Assay type in all cases: biochemical
Settings in all cases: 1 μM of the Example
[1] = target: AURKB (Aurora B) (Homo sapiens (Human), UniProt Q96GD4); assay: Kinase selectivity, Z'-LYTE assay platform
[2] = target: BRAF V599E (Homo sapiens (Human), UniProt P15056, V600E); assay: Kinase selectivity, Z'-LYTE assay platform
[3] = target: CDK1/cyclin B (Homo sapiens (Human), UniProt P06493); assay: Kinase selectivity, Z'-LYTE assay platform
[4] = target: CHEK2 (CHK2) (Homo sapiens (Human), UniProt O96017); assay: Kinase selectivity, Z'-LYTE assay platform
[5] = target: CLK2 (Homo sapiens (Human), UniProt P49760); assay: Kinase selectivity, Z'-LYTE assay platform
[6] = target: DYRK1A (Homo sapiens (Human), UniProt Q13627); assay: Kinase selectivity, Z'-LYTE assay platform
[7] = target: IRAK1 (Homo sapiens (Human), UniProt P51617); assay: Kinase selectivity, Adapta assay platform
[8] = target: JAK3 (Homo sapiens (Human), UniProt P52333); assay: Kinase selectivity, Z'-LYTE assay platform
[9] = target: MAPK1 (ERK2) (Homo sapiens (Human), UniProt P28482); assay: Kinase selectivity, Z'-LYTE assay platform
[10] = target: MAPK8 (JNK1) (Homo sapiens (Human), UniProt P45983); assay: Kinase selectivity, Z'-LYTE assay platform
MAPK8 (JNK1), sequence (P45983 whole entry): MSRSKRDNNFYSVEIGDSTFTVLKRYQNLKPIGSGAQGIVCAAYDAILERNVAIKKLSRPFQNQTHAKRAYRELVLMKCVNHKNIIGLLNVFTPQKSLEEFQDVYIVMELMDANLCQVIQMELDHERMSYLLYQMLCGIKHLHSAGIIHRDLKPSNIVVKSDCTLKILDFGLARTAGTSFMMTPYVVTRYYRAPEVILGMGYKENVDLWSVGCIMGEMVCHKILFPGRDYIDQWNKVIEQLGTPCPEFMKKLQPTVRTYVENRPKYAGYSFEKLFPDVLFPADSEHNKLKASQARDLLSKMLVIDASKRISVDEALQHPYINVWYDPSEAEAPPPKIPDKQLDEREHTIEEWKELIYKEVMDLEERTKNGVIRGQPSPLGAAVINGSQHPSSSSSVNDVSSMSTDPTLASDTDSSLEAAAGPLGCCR

JAK3, sequence (P52333 whole entry): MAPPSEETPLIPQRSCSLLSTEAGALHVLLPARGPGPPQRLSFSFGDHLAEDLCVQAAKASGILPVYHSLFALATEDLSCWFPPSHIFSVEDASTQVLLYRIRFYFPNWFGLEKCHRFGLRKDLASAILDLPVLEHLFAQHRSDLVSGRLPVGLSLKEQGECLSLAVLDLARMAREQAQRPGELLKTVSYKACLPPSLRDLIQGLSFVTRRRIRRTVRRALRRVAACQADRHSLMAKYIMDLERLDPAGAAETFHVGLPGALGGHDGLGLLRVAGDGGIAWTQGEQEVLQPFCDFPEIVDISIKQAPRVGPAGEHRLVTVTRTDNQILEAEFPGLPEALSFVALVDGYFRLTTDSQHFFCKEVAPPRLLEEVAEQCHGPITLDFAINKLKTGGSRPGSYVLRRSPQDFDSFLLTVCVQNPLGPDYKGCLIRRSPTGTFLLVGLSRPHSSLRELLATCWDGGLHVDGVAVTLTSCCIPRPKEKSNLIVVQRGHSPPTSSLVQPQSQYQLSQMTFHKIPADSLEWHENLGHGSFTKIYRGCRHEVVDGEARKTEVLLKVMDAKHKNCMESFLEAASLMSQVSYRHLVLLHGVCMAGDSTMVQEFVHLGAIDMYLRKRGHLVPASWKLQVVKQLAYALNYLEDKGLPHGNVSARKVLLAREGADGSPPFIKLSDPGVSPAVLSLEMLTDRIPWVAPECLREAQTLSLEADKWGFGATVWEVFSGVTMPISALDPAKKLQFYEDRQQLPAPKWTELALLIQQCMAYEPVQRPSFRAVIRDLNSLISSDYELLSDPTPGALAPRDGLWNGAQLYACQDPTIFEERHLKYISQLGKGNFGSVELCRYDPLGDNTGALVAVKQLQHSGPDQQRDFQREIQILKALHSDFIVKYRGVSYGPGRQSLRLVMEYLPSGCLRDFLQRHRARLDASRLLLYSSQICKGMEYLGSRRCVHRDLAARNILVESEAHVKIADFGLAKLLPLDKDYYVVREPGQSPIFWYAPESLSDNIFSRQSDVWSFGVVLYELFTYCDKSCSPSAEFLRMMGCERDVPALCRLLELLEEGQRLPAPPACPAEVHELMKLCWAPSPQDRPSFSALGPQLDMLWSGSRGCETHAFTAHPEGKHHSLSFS
IRAK1, sequence (P51617 whole entry): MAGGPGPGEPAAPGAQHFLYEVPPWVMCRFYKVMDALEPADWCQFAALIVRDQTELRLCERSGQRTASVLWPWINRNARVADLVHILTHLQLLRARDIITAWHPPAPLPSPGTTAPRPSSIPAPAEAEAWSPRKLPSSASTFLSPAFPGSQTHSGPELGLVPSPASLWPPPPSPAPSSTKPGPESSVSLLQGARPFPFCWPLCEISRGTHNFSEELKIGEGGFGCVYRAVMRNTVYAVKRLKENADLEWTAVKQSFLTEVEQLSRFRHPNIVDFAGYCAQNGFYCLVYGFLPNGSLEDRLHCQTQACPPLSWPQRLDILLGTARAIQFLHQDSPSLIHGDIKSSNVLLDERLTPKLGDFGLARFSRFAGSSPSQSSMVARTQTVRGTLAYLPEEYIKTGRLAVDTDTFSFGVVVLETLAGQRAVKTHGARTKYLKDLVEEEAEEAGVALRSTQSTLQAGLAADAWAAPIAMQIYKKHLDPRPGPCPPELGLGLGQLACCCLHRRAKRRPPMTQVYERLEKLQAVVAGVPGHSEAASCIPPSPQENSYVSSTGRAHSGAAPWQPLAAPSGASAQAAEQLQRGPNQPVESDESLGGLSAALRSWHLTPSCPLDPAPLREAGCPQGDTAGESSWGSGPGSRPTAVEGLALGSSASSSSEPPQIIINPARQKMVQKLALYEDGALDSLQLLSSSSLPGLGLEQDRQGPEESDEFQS
AURKB (Aurora B), sequence (Q96GD4 whole entry): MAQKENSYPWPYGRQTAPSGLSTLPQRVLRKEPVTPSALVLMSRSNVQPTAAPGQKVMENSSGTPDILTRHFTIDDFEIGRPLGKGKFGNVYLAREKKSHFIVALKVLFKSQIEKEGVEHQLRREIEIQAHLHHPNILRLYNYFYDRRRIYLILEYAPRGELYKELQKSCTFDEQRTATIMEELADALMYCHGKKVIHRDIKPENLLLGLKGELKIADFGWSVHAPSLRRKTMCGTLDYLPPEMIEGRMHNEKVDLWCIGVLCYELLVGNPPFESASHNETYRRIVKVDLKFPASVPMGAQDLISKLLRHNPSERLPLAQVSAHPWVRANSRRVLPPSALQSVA
CHEK2 (CHK2), sequence (O96017 whole entry): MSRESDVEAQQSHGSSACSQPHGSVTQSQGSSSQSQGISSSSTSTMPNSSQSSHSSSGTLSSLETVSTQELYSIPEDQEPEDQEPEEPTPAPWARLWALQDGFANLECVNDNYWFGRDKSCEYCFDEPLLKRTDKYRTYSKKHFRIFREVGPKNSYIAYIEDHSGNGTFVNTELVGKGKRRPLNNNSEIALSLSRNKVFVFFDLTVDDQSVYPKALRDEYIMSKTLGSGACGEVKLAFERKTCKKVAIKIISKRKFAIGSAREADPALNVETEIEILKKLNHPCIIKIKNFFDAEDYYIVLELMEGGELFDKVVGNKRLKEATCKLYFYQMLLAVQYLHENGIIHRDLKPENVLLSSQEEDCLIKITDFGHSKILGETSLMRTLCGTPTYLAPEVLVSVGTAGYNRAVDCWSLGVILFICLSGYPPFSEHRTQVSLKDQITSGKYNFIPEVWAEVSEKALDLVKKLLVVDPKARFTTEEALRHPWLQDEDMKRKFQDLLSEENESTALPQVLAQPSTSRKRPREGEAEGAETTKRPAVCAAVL
BRAF V599E, sequence (P15056 416-766 V600E limits assumed): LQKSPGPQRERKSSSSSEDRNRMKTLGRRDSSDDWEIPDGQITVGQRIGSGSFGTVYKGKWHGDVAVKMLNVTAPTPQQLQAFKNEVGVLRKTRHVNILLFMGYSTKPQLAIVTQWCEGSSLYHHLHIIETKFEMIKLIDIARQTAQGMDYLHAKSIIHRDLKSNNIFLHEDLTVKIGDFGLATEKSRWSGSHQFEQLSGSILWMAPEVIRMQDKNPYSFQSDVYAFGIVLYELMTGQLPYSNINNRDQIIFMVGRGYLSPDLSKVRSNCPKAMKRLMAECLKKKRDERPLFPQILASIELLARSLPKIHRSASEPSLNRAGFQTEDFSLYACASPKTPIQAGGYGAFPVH
CLK2, sequence (P49760 whole entry): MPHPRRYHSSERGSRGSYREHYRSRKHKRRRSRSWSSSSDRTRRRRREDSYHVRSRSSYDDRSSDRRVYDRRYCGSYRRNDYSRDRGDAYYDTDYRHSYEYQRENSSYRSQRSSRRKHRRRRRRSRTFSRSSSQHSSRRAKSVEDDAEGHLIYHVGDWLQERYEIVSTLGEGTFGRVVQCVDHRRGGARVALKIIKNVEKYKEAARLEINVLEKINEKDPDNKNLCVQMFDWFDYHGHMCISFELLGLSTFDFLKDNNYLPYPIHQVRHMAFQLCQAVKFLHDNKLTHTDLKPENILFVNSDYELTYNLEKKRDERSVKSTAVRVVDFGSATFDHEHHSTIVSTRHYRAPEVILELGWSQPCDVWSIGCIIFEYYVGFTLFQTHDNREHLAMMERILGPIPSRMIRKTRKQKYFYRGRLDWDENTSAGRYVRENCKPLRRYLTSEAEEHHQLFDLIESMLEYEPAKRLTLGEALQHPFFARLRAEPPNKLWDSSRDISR
CDK1/cyclin B, sequence (P06493 whole entry): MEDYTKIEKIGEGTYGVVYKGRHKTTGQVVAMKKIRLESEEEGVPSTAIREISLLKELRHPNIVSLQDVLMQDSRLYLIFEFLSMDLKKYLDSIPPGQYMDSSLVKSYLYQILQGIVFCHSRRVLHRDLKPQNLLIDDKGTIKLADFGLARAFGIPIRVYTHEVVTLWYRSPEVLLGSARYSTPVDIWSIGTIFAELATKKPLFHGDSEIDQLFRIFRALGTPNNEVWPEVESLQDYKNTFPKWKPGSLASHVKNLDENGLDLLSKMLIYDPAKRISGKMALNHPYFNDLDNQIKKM
CDK1/cyclin B, sequence (P14635 whole entry partner): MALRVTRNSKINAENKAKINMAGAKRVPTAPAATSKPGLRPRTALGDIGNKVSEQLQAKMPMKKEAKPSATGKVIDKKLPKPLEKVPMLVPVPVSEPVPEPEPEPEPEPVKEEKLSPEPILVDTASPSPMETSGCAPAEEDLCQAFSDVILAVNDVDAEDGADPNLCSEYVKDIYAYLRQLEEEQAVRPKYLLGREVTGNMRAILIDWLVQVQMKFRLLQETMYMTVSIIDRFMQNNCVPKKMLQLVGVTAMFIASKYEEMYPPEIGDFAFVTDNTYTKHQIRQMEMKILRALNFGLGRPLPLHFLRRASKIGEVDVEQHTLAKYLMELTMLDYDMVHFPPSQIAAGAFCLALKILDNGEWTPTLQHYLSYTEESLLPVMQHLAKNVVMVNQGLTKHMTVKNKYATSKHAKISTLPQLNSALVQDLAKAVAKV

SMILES | percent inhibition AURKB (Aurora B) [1] [%] | percent inhibition BRAF V599E [2] [%] | percent inhibition CDK1/cyclin B [3] [%] | percent inhibition CHEK2 (CHK2) [4] [%] | percent inhibition CLK2 [5] [%] | percent inhibition DYRK1A [6] [%] | percent inhibition IRAK1 [7] [%] | percent inhibition JAK3 [8] [%] | percent inhibition MAPK1 (ERK2) [9] [%] | percent inhibition MAPK8 (JNK1) [10] [%]
CC1(Oc2ccc3[nH]nc(-c4cc(N5CCOCC5)ncn4)c3c2)CC1 [Example 1] | 28 | 24 | 10 | 21 | 57 | 16 | 23 | 7 | 8 | 56
CO[C@H]1CCN(c2cc(-c3n[nH]c4ccc(OC5(C)CC5)cc34)ncn2)C1 [Example 12] | 37 | 11 | 43 | 17 | 53 | 5 | 31 | 12 | 10 | 40
C[C@@H]1CN(c2cc(-c3n[nH]c4ccc(OC5(C)CC5)cc34)ncn2)C[C@H](C)O1 [Example 51] | 16 | 10 | 1 | 15 | 55 | 4 | −15 | 7 | −4 | 0
